Here are results for 14 compounds from ChEMBL document CHEMBL4699582, “Discovery of OATD-01, a First-in-Class Chitinase Inhibitor as Potential New Therapeutics for Idiopathic Pulmonary Fibrosis” (J Med Chem, 2020).

The target of data set [1] is Chitotriosidase-1 (Mus musculus, UniProt Q9D7Q1). As to the kind of experiment: biochemical.
Description: Inhibition of recombinant full-length C-terminal his-tagged mouse CHIT1 expressed in CHO-K1 cells assessed as reduction in chitinolytic activity using 4-methylumbelliferyl-beta-D-N,N',N"-triacetylchitotrioside as substrate after 60 mins by fluorometric assay
Data set [2] deals with Acidic mammalian chitinase (Mus musculus, UniProt Q91XA9). As to the kind of experiment: Inhibition of full-length C-terminal his-tagged mouse AMCase expressed in expressed in CHO-K1 cells assessed as reduction in chitinolytic activity using 4-methylumbelliferyl-beta-D-N,N'-diacetylchitobioside hydrate as substrate after 60 mins by fluorometric assay. Format: cell-based.
Data set [3] concerns the target Voltage-gated inwardly rectifying potassium channel KCNH2 (Homo sapiens, UniProt Q12809). As to the kind of experiment: Inhibition of tracer red binding to human ERG expressed in HEK293 cell membranes measured after 2 to 6 hrs by fluorescence polarization assay. In general terms: In fluorescence polarisation assays a small probe gives low polarisation when free and higher when bound to something large.

For data set [4], the target named is Chitotriosidase-1 (Homo sapiens, UniProt Q13231). The format is cell-based. To be noted: hek293f.
Data set [5] addresses Acidic mammalian chitinase (Homo sapiens, UniProt Q9BZP6). As to the kind of experiment: Inhibition of full-length C-terminal his-tagged human AMCase expressed in CHO-K1 cells assessed as reduction in chitinolytic activity using 4-methylumbelliferyl-beta-D-N,N-diacetylchitobioside hydrate as substrate after 60 mins by fluorometric assay. Format: cell-based.

Chain of Chitotriosidase-1 (Mus musculus, UniProt Q9D7Q1) (Q9D7Q1 whole entry): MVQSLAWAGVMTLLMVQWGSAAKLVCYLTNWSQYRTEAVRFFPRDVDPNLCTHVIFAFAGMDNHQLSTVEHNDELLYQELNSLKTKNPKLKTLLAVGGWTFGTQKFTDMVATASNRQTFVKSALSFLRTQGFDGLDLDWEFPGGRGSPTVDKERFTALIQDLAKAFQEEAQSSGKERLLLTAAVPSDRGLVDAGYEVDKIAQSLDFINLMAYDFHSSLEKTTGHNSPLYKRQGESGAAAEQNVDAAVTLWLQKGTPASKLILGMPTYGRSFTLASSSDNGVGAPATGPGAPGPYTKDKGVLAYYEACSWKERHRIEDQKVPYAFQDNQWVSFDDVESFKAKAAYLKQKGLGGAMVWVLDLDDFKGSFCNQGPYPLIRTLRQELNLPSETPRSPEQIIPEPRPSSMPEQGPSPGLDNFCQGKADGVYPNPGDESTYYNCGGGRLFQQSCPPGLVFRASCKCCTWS
Chain of Acidic mammalian chitinase (Mus musculus, UniProt Q91XA9) (Q91XA9 whole entry): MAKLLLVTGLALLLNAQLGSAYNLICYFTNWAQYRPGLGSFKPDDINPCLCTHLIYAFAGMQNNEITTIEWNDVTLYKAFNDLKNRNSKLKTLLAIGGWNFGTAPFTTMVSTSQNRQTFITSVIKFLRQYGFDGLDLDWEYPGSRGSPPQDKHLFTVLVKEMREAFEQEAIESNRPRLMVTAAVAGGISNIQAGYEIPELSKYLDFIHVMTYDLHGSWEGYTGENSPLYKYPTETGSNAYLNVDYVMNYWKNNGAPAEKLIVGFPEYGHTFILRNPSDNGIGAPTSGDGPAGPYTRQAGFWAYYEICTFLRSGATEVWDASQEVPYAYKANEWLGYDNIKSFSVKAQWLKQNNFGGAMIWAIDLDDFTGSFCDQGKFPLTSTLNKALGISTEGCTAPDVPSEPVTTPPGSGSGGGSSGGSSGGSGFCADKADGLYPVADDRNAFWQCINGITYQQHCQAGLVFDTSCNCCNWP
Chain of Voltage-gated inwardly rectifying potassium channel KCNH2 (Q12809 whole entry): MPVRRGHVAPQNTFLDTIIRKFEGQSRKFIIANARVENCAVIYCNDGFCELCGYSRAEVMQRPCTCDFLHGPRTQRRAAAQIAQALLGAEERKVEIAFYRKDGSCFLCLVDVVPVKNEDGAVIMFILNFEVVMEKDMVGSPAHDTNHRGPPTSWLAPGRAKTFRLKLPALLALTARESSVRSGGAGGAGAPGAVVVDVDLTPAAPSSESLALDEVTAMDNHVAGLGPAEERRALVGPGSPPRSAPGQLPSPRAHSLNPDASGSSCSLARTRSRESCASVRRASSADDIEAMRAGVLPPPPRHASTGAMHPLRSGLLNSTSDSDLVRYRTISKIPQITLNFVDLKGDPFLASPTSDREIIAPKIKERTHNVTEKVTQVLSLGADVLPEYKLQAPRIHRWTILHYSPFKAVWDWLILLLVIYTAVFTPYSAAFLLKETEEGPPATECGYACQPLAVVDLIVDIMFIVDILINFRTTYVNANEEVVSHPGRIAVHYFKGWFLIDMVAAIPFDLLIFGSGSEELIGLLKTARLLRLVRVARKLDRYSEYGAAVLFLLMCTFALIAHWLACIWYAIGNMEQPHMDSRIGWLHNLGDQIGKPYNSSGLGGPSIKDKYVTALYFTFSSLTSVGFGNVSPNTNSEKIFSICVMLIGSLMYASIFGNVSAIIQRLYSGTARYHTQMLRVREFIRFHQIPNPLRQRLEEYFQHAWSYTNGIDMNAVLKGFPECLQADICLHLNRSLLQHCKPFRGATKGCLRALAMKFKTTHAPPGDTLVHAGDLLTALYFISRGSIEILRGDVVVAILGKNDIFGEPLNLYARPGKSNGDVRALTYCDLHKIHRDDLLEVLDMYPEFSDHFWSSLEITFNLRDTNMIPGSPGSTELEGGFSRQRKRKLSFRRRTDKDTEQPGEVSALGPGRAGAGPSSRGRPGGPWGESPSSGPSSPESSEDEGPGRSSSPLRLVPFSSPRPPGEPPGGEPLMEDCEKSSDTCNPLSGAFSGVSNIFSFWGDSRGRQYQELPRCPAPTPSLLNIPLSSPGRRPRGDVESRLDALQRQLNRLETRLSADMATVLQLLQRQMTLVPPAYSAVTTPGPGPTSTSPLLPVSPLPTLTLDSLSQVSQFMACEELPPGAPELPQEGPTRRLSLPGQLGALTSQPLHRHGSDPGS
Chain of Chitotriosidase-1 (Homo sapiens, UniProt Q13231) (Q13231 whole entry): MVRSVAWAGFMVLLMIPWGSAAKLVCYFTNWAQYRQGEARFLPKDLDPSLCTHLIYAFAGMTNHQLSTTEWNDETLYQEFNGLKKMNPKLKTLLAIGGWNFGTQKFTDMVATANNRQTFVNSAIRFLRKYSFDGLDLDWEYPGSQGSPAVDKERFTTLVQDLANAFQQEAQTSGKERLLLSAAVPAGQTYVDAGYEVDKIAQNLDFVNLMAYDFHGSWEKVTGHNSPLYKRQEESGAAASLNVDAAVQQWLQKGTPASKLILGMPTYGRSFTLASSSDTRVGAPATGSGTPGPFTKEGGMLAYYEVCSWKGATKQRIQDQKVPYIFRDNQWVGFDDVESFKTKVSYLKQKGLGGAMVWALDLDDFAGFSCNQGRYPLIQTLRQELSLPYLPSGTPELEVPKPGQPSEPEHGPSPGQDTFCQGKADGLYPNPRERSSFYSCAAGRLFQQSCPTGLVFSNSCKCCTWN
Chain of Acidic mammalian chitinase (Homo sapiens, UniProt Q9BZP6) (Q9BZP6 whole entry): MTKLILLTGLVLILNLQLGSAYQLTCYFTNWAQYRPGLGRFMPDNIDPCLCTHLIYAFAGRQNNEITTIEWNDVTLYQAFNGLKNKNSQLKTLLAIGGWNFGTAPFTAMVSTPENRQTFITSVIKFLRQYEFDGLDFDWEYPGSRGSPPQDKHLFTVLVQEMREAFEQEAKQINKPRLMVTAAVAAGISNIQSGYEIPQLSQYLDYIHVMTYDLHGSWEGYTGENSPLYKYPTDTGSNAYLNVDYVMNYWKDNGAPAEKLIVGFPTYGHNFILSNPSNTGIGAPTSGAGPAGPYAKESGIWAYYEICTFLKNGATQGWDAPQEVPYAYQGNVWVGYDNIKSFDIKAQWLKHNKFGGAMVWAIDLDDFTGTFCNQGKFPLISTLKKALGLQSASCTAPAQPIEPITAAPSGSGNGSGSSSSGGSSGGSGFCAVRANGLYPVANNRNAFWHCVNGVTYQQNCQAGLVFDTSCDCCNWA

As for `C[C@@H]1CN(C2CCN(c3nnc(N)[nH]3)CC2)[C@@H](Cc2ccc(Cl)cc2)CO1`, the IC50 – broadly, the midpoint of a concentration-inhibition curve – was 7200 nM in data set [1] and 1000 nM in data set [2].
`Nc1nnc(N2CCC(N3C[C@H](CO)OC[C@@H]3Cc3ccc(Cl)cc3)CC2)[nH]1`: the IC50 in data set [3] was 72000 nM; in data set [1], 25 nM; in data set [2] it was 6.7 nM.
For the compound `CC[C@H]1CN(C2CCN(c3nc(N)n[nH]3)CC2)[C@@H](Cc2ccc(Cl)cc2)CO1`, the IC50 was 33000 nM in data set [3] and 1.3 nM in data set [2].
For the compound `Nc1n[nH]c(N2CCC(N3CC(=O)NC[C@@H]3Cc3ccc(Cl)cc3)CC2)n1`, the results for the IC50 in data set [3], in data set [1] and in data set [2] were 80000 nM, 5300 nM and 660 nM, respectively.
`Nc1n[nH]c(N2CCC(N3CCNC(=O)[C@@H]3Cc3ccc(Cl)cc3)CC2)n1`: the IC50 is 27000 nM in data set [1], “Not Active” in data set [4] and 22000 nM in data set [2].
For `Nc1nnc(N2CCC(N3CCS(=O)(=O)C[C@@H]3Cc3ccc(Cl)cc3)CC2)[nH]1`, the IC50 stood at 1700 nM in data set [1] and 3000 nM in data set [2].
Take `Nc1nnc(N2CCC(N3Cc4ccccc4OC[C@@H]3Cc3ccc(Cl)cc3)CC2)[nH]1`: the IC50 in data set [3] worked out at 22000 nM; in data set [1], 137 nM; in data set [2] it was 59 nM.
Turning to `CC(C)C[C@H]1CN(C2CCN(c3nnc(N)[nH]3)CC2)[C@@H](Cc2ccc(Cl)cc2)CO1`, the IC50 in data set [3] amounted to 8500 nM; in data set [1], 15 nM; in data set [2], 1 nM.
For the compound `CC(C)(O)[C@H]1CN(C2CCN(c3nc(N)n[nH]3)CC2)[C@@H](Cc2ccc(Cl)cc2)CO1`, the results for the concentration for half-maximal inhibition (IC50) entry in data set [3] (hek293), in data set [1] and in data set [2] were “Not Active”, 29 nM and 5.5 nM, respectively.
Consider `CNC(=O)[C@H]1CN(C2CCN(c3nc(N)n[nH]3)CC2)[C@@H](Cc2ccc(Cl)cc2)CO1`, for which the IC50 result in data set [3] (hek293) is “Not Active”; in data set [1] it was 49 nM; in data set [2], 7.8 nM.
With `CC(C)CN1C[C@H](Cc2ccc(Cl)cc2)N(C2CCN(c3n[nH]c(N)n3)CC2)C[C@@H]1C`, the IC50 was found to be 2400 nM in data set [3] and 84 nM in data set [5].
Turning to `CC(C)[C@H]1CN(C2CCN(c3nc(N)n[nH]3)CC2)[C@@H](Cc2ccc(Cl)cc2)CO1`, the values for the IC50 in data set [3], in data set [1] and in data set [2] were 34000 nM, 19 nM and 2.1 nM, respectively.
Turning to `CN1CCN(C2CCN(c3nnc(N)[nH]3)CC2)[C@@H](Cc2ccc(Cl)cc2)C1`, the IC50 result in data set [3] (hek293) is “Not Active”.
Take `COC[C@H]1CN(C2CCN(c3nc(N)n[nH]3)CC2)[C@@H](Cc2ccc(Cl)cc2)CO1`: the IC50 in data set [3] was determined as 100000 nM; in data set [1], 30 nM; in data set [2], 7.7 nM.
